Measurements: patent US20020155172A1, “Methods and compounds for decreasing cell toxicity or death” (priority 2000, published 2002)

What was measured:
[1] = test system: semi-purified Q79 oligomers from HeLa cells expressing transfected Q79-GFP; test: Disassembly of semi-purified Q79 oligomers; type: biochemical; settings: 25 μM (FIG. 6C); fluorescence microscopy
Protocol: FIG. 6C is a set of scanned images of the disruption of pre-formed Q79-GFP oligomers by Congo red, minocycline, or rolitetracycline. Lysates from Q79-GFP expressing cells were treated with 25 μM of the indicated compound, and visualized by fluorescence microscopy.
To determine if binding to polyglutamine is sufficient to inhibit the aggregate formation, we compared the ability of minocycline, rolitetracycline, iota carrageenan, dextran, chrysamine G, and Congo red to bind to 81-repeat polyglutamine polypeptide by the chemical absorption assay described above (FIG. 6B). […] To examine the relationship of compound binding and its ability to dissolve expanded polyglutamine aggregates, we tested their effects on semi-purified Q79 oligomers from HeLa cells expressing transfected Q79-GFP, viewed using a microscope.

[2] = test system: HeLa cells transfected with Q79-GFP; test: Q79-GFP aggregates in HeLa cells by fluorescence microscopy; type: cell-based; settings: 100 μM
Protocol: FIG. 5I is a set of scanned images of HeLa cells expressing Q79-GFP and subsequently treated with Congo red (100 μM), or ZVAD (100 μM), as detected by fluorescence microscopy.
Changes in energy metabolism have been detected in brains of pre-symptomatic HD animal models, and in pre-symptomatic patients. We detected a pronounced decline in ATP levels upon expanded polyglutamine expression in cells as early as 24 hours. […] Expression of Q79-GFP in HeLa cells transfected with Q79-GFP and subsequently treated with Congo red (100 μM), or ZVAD (100 μM), is shown in FIG. 51.

[3] = test system: Q79-Q79 interaction (Q79-ECFP/EYFP-Q79); test: FRET-Q79 assay; type: biochemical; settings: aggregates treated with 100 Congo red; 488 nm excitation, 527 nm emission
Source text: To rule out the possibility that Congo red merely disrupts large polyglutamine aggregates without affecting oligomeric polyglutamine interaction that may be invisible to fluorescence microscopy, we designed a FRET-Q79 assay. In this assay, the expression constructs EYFP-Q79 (enhanced yellow fluorescent protein fused to a polypeptide containing 79 polyglutamines) and Q79-ECFP (enhanced cyan fluorescent protein fused to a polypeptide containing 79 polyglutamines) were co-transfected into HeLa cells. The EYFP-HAQ79 was made by ligation of a SacI/Notl digested insert from HA-Q79 CMX (Sanchez et al., 1999, supra) into the plasmid CFP-C1, described by Sanchez et al. (supra) after Sac1 digestion and blunting. […]
The lysates were passed through a needle to ensure release of polyglutamine inclusions from the nuclei. […] The fluorescence resonance energy transfer (FRET) was determined from polyglutamine oligomers formed in Q79-ECFP/EYFP-Q79 expressing cells upon addition of PBS or Congo red. Specifically, the interaction of the tagged Q79 polypeptides was detected by immunofluorescence at 488 nm excitation and 527 nm emission for FRET using a Wallach plate reader, and the ratio of the immunofluorescence was determined. Immunofluorescence levels were also detected for each ECFP and EYFP independent of the effect of Congo red on fluorescence emission wavelengths.

cells; primary neurons = test: Compound toxicity in cells; type: cell-based
caspase-8 = test: Activation of caspase-8 by Western blot; type: cell-based; settings: HeLa, HA-tagged Q79-GFP
Protocol: Expanded polyglutamine repeats recruit and activate caspase-8 (Sanchez et al., supra). We tested if the treatment of cells expressing expanded polyglutamine repeats with Congo red inhibits the activation of caspase-8. HeLa cells were transfected with a hemagglutinin-tagged (HA) […]-GFP construct in the presence or absence of Congo red and the cell lysates were analyzed by Western blot analysis for the expression of caspase-8, or for expression of HA. The appearance of a 45 kilodalton active caspase-8 fragment was detected at 24 hours after transfection, which was before significant loss of cytoplasmic membrane integrity and morphological changes occurred, and near the time of ATP loss (FIG. 5E).

[4] = test system: HeLa cells transfected with a Q79-GFP construct; test: Polyglutamine-induced cell death in HeLa cells; type: cell-based
Protocol: FIG. 4A is two graphs showing the effect of Congo red, tetracyclines, and sulfated polyanions on polyglutamine-induced cell death in, each graph representing a separate experiment. HeLa cells transfected with a Q79-GFP construct were treated with 100 μM of minocycline (mino), Chrysamine G (CG), Rolitetracycline (Ro), iota carrageenan (iota), dextran 500 (dextran), or Congo red (CR), six hours after transfection. The amount of cell death was determined 48 hours after transfection by morphological criteria as previously described (Sanchez et al., supra).
In a cell expressing Q79-GFP polypeptides, polyglutamine aggregates are formed and the cell dies by apoptosis (Sanchez, supra). Cell viability was determined by morphological criteria characteristic of apoptosis, including cell blebbing, shrinking. Total cell lysates and tissue homogenates were obtained using Buffer A: 1% triton in PBS, containing 10 μg/ml DNAse and protease inhibitors; leupeptin 20 μg/ml, aprotinin 20 u/ml, and PMSF 100 mM. The proteins were separated by 12% SDS/PAGE and transferred to PVDF Immobilon membrane (Millipore, Inc). Antibodies used included rabbit polyclonal antibodies; EM48 (Li et al., Mol. Neurobiol. 20:111-124, 2000) anti-heat shock proteins 40 and 70 (Stressgen, Co.), and rat monoclonal anti-caspase-8 antibody.
These effects were determined by visual inspection of GFP-positive cells under an inverted fluorescence microscope. In addition, the occurrence of apoptosis of these transfected cell samples was confirmed by staining the cells with trypan blue, propidium iodide, or Hoescht 33342 to examine the cellular or nuclear morphology.
Compounds that disrupt other types of aggregates, for example, amyloid fibril aggregates were tested for their ability to disrupt pre-formed polyglutamine aggregates. HeLa Cells were transfected with a Q79-GFP construct. Six hours later, Iota-carrageenan, dextran, minocycline, rolitetracycline, and Chrysamine G (1 nM to 100 μM) were each incubated with the cells. Seventy-two hours post-transfection, the cells were evaluated for the occurrence of cell death, by visual inspection under an inverted fluorescence microscope.

For `Nc1c(/N=N/c2ccc(-c3ccc(/N=N/c4cc(S(=O)(=O)O)c5ccccc5c4N)cc3)cc2)cc(S(=O)(=O)O)c2ccccc12` [Congo red, diphenyldiazo-bis-alpha-napthylaminesulfonate], which “disassembly of pre-formed poly-Q oligomers” value [1] is on record?
Its value is “caused the disassembly of pre-formed poly-Q oligomers”.

And the “polyglutamine aggregates in cells” value [2]?
Its value is “displayed fewer polyglutamine aggregates”.

And the FRET ratio [3]?
Its FRET ratio is “significantly reduced”.

What about the “compound toxicity in cells” value (cells; primary neurons) of the same compound?
The value was “not toxic even to primary neurons”.

What about the “appearance of active caspase-8 (45 kilodalton fragment)” value (caspase-8) of the same compound?
Its value is “completely inhibited the appearance of active caspase-8”.

What about the “cell death, as indicated by morphology” value ([4]; HA-tagged Q79-GFP, caspase-8 experiment) of the same compound?
Its value is “significantly inhibited ATP loss and cell death”.

And the “Polyglutamine-induced Cell Death” value ([4]; Q79-GFP, compound added six hours after transfection, 1 nM to 100 μM (FIG. 4A: 100 μM), seventy-two hours post-transfection)?
Its value is “+ (Each + indicates approximately 20% cell death.)”.
